How the values were obtained:
[1] = test system: estrogen receptor; experiment: estrogen receptor relative binding affinity, expanded training set of 107 compounds; conditions: input class, 107-compound training set
Text: The training set included weak estrogen receptor binders in addition to strong and medium estrogen receptor binders.
For this model, strong estrogen receptor binders were defined as having log(RBA)>−0.25 and weak estrogen receptor binders were defined as having log(RBA)<−3.0. Medium estrogen receptor binders were defined as having log(RBA) in between.

[2] = test system: estrogen receptor; conditions: 107-compound training set; cited from earlier work
[3] = test system: estrogen receptor; experiment: estrogen receptor binding class of the 30-compound training set; conditions: SDAR training input endpoint class, 30 compounds
Text: Two Spectral Data-Activity Relationship (SDAR) models were established, based on ^13C NMR and EI MS spectra, for 30 estrogenic chemicals whose relative binding affinities (RBA) for the alpha (ERα) and beta (ERβ) estrogen receptors are available.
Strong binders to the estrogen receptor were classified as having a log (RBA) over 0.0, and medium binders to the estrogen receptor were classified as having a log (RBA) of less than or equal to 0.0.

| Compound | Class [1] | log RBA [2] | also measured |
| --- | --- | --- | --- |
| ClC(Cl)=C(c1ccc(Cl)cc1)c1ccc(Cl)cc1 [DDE-p,p′] | W (weak estrogen receptor binders were defined as having log(RBA)<−3.0) | – | – |
| O=C(c1ccccc1)c1ccc(O)cc1O [2,4-Dihydroxybenzophenone] | W (weak estrogen receptor binders were defined as having log(RBA)<−3.0) | −2.61 | – |
| Clc1ccc(C(c2ccccc2Cl)C(Cl)Cl)cc1 (centres unmarked) [DDD-o,p′] | W (weak estrogen receptor binders were defined as having log(RBA)<−3.0) | – | – |
| CC=Cc1ccc(O)c(OC)c1 [Isoeugenol] | W (weak estrogen receptor binders were defined as having log(RBA)<−3.0) | – | – |
| Cc1cc(O)ccc1Cl [4-Chloro-3-methylphenol] | – | −3.38 | – |
| Clc1ccc(C(c2ccc(Cl)cc2)C(Cl)Cl)cc1 [DDD-p,p′] | W (weak estrogen receptor binders were defined as having log(RBA)<−3.0) | – | – |
| CC(C)(C)c1ccc(O)cc1 [4-tert-Butylphenol] | – | −3.61 | – |
| C#C[C@]1(O)CC[C@H]2[C@@H]3CCc4cc(OC)ccc4[C@H]3CC[C@@]21C [Mestranol] | S (strong estrogen receptor binders were defined as having log(RBA)>−0.25) | – | RBA [2]: 035 |
| CC/C(=C(\c1ccc(O)cc1)c1ccc(OCCN(C)C)cc1)c1ccccc1 [4-OH-Tamoxifen] | S (strong estrogen receptor binders were defined as having log(RBA)>−0.25) | 2.24 | – |
| O=C(O)COc1cc(Cl)c(Cl)cc1Cl [2,4,5-T] | W (weak estrogen receptor binders were defined as having log(RBA)<−3.0) | – | – |
| O=P(Oc1ccccc1)(Oc1ccccc1)Oc1ccccc1 [Triphenylphosphate] | W (weak estrogen receptor binders were defined as having log(RBA)<−3.0) | – | – |
| Oc1ccc(Cl)cc1Cc1cc(Cl)ccc1O [2,2′-Methylenebis (4-chlorophenol)] | M (Medium estrogen receptor binders were defined as having log(RBA) in between) | −2.45 | – |
| C[C@]12C[C@H](O)[C@H]3[C@@H](CCC4=CC(=O)CC[C@@]43C)[C@@H]1CC[C@@H]2C(=O)CO [Corticosterone] | W (weak estrogen receptor binders were defined as having log(RBA)<−3.0) | – | – |
| C=CCc1ccc(O)c(OC)c1 [Eugenol] | W (weak estrogen receptor binders were defined as having log(RBA)<−3.0) | – | – |
| CCCCCCCCCc1ccc(O)cc1 [4-Nonylphenol] | M (Medium estrogen receptor binders were defined as having log(RBA) in between) | −1.45 | – |
| CC(CCC(=O)O)(c1ccc(O)cc1)c1ccc(O)cc1 [Diphenolic acid] | W (weak estrogen receptor binders were defined as having log(RBA)<−3.0) | −3.13 | – |
| COc1cc(C=O)ccc1O [Vanillin] | W (weak estrogen receptor binders were defined as having log(RBA)<−3.0) | – | – |
| C[C@]12CC[C@@H]3c4ccc(O)cc4[C@@H](O)C[C@H]3[C@@H]1CC[C@@H]2O [Estra-1,3,5(10)-trien-3,6α,17β-triol] | S (strong estrogen receptor binders were defined as having log(RBA)>−0.25) | −0.15 | – |
| CC/C(=C(\c1ccccc1)c1ccc(OCCN(C)C)cc1)c1ccccc1 [Tamoxifen] | S (strong estrogen receptor binders were defined as having log(RBA)>−0.25) | – | Class Input [3]: S (Strong binders to the estrogen receptor were classified as having a log (RBA) over 0.0) |

| Compound | Class [1] | log RBA [2] | also measured |
| --- | --- | --- | --- |
| C[C@]12CCC(=O)C[C@H]1CC[C@@H]1[C@@H]2CC[C@]2(C)[C@@H](O)CC[C@@H]12 [Etiocholan-17β-ol-3-one] | W (weak estrogen receptor binders were defined as having log(RBA)<−3.0) | – | – |
| Oc1ccc(Cc2ccc(O)cc2)cc1 [BIS (4-hydroxyphenyl)-methane] | W (weak estrogen receptor binders were defined as having log(RBA)<−3.0) | −3.02 | – |
| 4,4′-Methylenebis (N,N-dimethyl) | W (weak estrogen receptor binders were defined as having log(RBA)<−3.0) | – | – |
| CC12CCC(CC1)C(C)(C)O2 [Cineole] | W (weak estrogen receptor binders were defined as having log(RBA)<−3.0) | – | – |
| CC(C)(C)c1cc(Cc2cc(C(C)(C)C)c(O)c(C(C)(C)C)c2)cc(C(C)(C)C)c1O [4,4′-Methylene(2,6-ditertbutylphenol)] | W (weak estrogen receptor binders were defined as having log(RBA)<−3.0) | – | – |
| O=C(O)C=Cc1ccccc1 [Cinnamic acid] | W (weak estrogen receptor binders were defined as having log(RBA)<−3.0) | – | – |
| O=C1C=CC(=C(c2ccc(O)cc2)c2ccc(O)cc2)C=C1 [Aurin] | M (Medium estrogen receptor binders were defined as having log(RBA) in between) | −1.49 | – |
| Oc1ccc(OCc2ccccc2)cc1 [4-Benzyloxyphenol] | W (weak estrogen receptor binders were defined as having log(RBA)<−3.0) | −3.44 | – |
| CCCCC(CC)COC(=O)c1ccccc1C(=O)OCC(CC)CCCC (centres unmarked) [BIS (2-ethylhexyl) phthalate] | W (weak estrogen receptor binders were defined as having log(RBA)<−3.0) | – | – |
| NCCc1ccc(O)c(O)c1 [Dopamine] | W (weak estrogen receptor binders were defined as having log(RBA)<−3.0) | – | – |
| Clc1ccc(C(c2ccc(Cl)cc2)C(Cl)(Cl)Cl)cc1 [DDT-p,p′] | W (weak estrogen receptor binders were defined as having log(RBA)<−3.0) | – | – |
| C(C=Cc1ccccc1)=Cc1ccccc1 [1,4-Diphenyl-1,3-butadiene] | W (weak estrogen receptor binders were defined as having log(RBA)<−3.0) | – | – |
| COc1ccc(C(=O)c2ccccc2O)c(O)c1 [2,2′-Dihydroxy4-methoxybenzophene] | W (weak estrogen receptor binders were defined as having log(RBA)<−3.0) | – | – |
| Oc1cccc(-c2ccccc2)c1 [3-Phenylphenol] | – | −3.44 | – |
| COc1ccc2[nH]cc(CCNC(C)=O)c2c1 [Melatonin] | W (weak estrogen receptor binders were defined as having log(RBA)<−3.0) | – | – |
| CCOC(=O)C=Cc1ccccc1 [Ethylcinnamate] | W (weak estrogen receptor binders were defined as having log(RBA)<−3.0) | – | – |
| Clc1ccc(C(c2ccccc2Cl)C(Cl)(Cl)Cl)cc1 (centres unmarked) [DDT-o,p′] | W (weak estrogen receptor binders were defined as having log(RBA)<−3.0) | −2.85 | – |
| C[C@@]12CCC[C@H]1[C@@H]1CCc3cc(O)ccc3[C@H]1CC2 [Estra-1,3,5(10)-trien-3-ol] | S (strong estrogen receptor binders were defined as having log(RBA)>−0.25) | 1.14 | – |
| CC(C)CCC[C@@H](C)[C@H]1CC[C@H]2[C@@H]3CC=C4C[C@@H](O)CC[C@]4(C)[C@H]3CC[C@]12C [Cholesterol] | W (weak estrogen receptor binders were defined as having log(RBA)<−3.0) | – | – |

| Compound | Class [1] | log RBA [2] | also measured |
| --- | --- | --- | --- |
| Oc1ccc(-c2ccccc2)cc1 [4-Phenylphenol] | – | −3.04 | – |
| OCc1ccccc1 [Benzylalcohol] | W (weak estrogen receptor binders were defined as having log(RBA)<−3.0) | – | – |
| C#C[C@]1(O)CC[C@H]2[C@@H]3CCc4cc(O)ccc4[C@H]3CC[C@@]21C [Ethynyl estradiol] | S (strong estrogen receptor binders were defined as having log(RBA)>−0.25) | – | – |
| CCC(C)(c1ccc(O)cc1)c1ccc(O)cc1 [Bisphenol B] | M (Medium estrogen receptor binders were defined as having log(RBA) in between) | −1.07 | – |
| O=c1c(-c2ccc(O)cc2)coc2cc(O)ccc12 [Daidzein] | M (Medium estrogen receptor binders were defined as having log(RBA) in between) | – | – |
| C[C@]12CC[C@@H]3c4ccc(O)cc4CC[C@H]3[C@@H]1CC[C@@H]2O [17β-Estradiol] | S (strong estrogen receptor binders were defined as having log(RBA)>−0.25) | – | – |
| CCCCCCO [Hexylalcohol] | W (weak estrogen receptor binders were defined as having log(RBA)<−3.0) | – | – |
| O=S(=O)(c1ccc(O)cc1)c1ccc(O)cc1 [4,4′-Sulfonylphenol] | W (weak estrogen receptor binders were defined as having log(RBA)<−3.0) | −3.07 | – |
| Oc1ccc(C=Cc2ccccc2)cc1 [Compound 4-Stilbenol, 4-Stilbenol] | W (weak estrogen receptor binders were defined as having log(RBA)<−3.0) | – | – |
| CCC(C)(C)c1ccc(O)cc1 [4-tert-Amylphenol] | – | −3.26 | – |
| Oc1ccccc1Cc1ccccc1O [BIS (2-hydroxyphenyl)-methane] | W (weak estrogen receptor binders were defined as having log(RBA)<−3.0) | – | – |
| C(=C(c1ccccc1)c1ccccc1)c1ccccc1 [Triphenylethylene] | W (weak estrogen receptor binders were defined as having log(RBA)<−3.0) | −2.78 | – |
| O=C(c1ccc(O)cc1)c1ccc(O)cc1 [4,4′-Dihydroxybenzophenone] | M (Medium estrogen receptor binders were defined as having log(RBA) in between) | −2.46 | – |
| COc1ccc([C@@H]2CC(=O)c3c(O)cc(O)cc3O2)cc1O [Hesperetin] | W (weak estrogen receptor binders were defined as having log(RBA)<−3.0) | – | – |
| CCCCCCC=O [Heptanal] | W (weak estrogen receptor binders were defined as having log(RBA)<−3.0) | – | – |
| OCCCCCCCCO [1,8-Octanediol] | W (weak estrogen receptor binders were defined as having log(RBA)<−3.0) | – | – |
| CCCCOC(=O)c1ccc(N)cc1 [Butyl-4-aminobenzoate] | W (weak estrogen receptor binders were defined as having log(RBA)<−3.0) | – | – |
| CCCCOC(=O)c1ccccc1C(=O)OCCCC [Dibutyl phthalate] | W (weak estrogen receptor binders were defined as having log(RBA)<−3.0) | – | – |
| CCOC(=O)c1ccccc1C(=O)OCC [Diethyl phthalate] | W (weak estrogen receptor binders were defined as having log(RBA)<−3.0) | – | – |
